{
  "source": "patent US7294485B2",
  "about": "“Rat calcium channel subunits and related probes, cell lines and methods” (Neuromed Pharmaceuticals Ltd., priority 2003, dated 2007)",
  "molecules": {"B1": {"name": "rat brain α2δ-2 subunit: α2δ-2 calcium channel subunit present in rat brain, SEQ. ID. NO:3, 1,150 amino acids, expressed from cDNA (protein, listed as Rattus norvegicus)", "chain": "MAVPARTCGASWPGPVRTARPWPGRGPRPCPDPRGPASGPARPLLLLLPPLLLLPLLTAPGASAYSFPQQHTMQHWARRLEQEIDGVMRIFGGVQQLREIYKDNRNLFDVQENEPQKLVEKVAGDIESLLDRKVQALKRLADAAENFQKAHRWQDNIKEEDIMYYDAKADAELDDPESEDMERGSKTSALRLDFIEEPNFKNKVNYSYTAVQIPTDIYKGSTVILNELNWTEALENVFIENRRQDPTLLWQVFGSATGVTRYYPATPWRAPKKIDLYDVRRRPWYIQGASSPKDMVIIVDVSGSVSGLTLKLMKTSVCEMLDTLSDDDYVNVASFNEKAQPVSCFTHLVQANVRNKKVFKEAVQGMVAKGTTGYKAGFEYAFDQLQNSNITRANCNKMIMMFTDGGEDRVQDVFEKYNWPNRTVRVFTFSVGQHNYDVTPLQWMACTNKGYYFEIPSIGAIRINTQEYLDVLGRPMVLAGKDAKQVQWTNVYEDALGLGLVVTGTLPVFNLTQDGPGEKKNQLILGVMGIDVALNDIKRLTPNYTLGANGYVFAIDLNGYVLLHPNLKPQTTNFREPVTLDFLDAELEDENKEEIRRSMIDEDKGHKQIRTLVKSLDERYIDEVIRNYTWVPIRSTNYSLGLVLPPYSTYYLQANLSDQILQVKYFEFLLPSSFESEGHVFIAPREYCKDLNASDNNTEFLKNFIELMEKVTPDSKQCNNFLLHNLILDTGITQQLVERVWRDQDLNTYSLLAVFAATDGAVTRVFPNKAAEDWTENPEPFNASFYRRSLDNRGYIFKPPHQDSLLRPLELENDTVGVLVSTAVELSLGRRTLRPAVVGVKLDLEAWAEKFKVLASNRTHQDQPQKQCGPSSHCEMDCEVNNEDLLCVLIDDGGFLVLSNQNHQWDQVGRFFSEVDANLMLALYNNSFYTRKESYDYQAACAPQPPGNLGAAPRGVFVPTIADFLNLAWWTSAAAWSLFQQLLYGLIYHSWFQADPAEAEGSPETRESSCVMKQTQYYFGSVNASYNAIIDCGNCSRLFHAQRLTNTNLLFVVAEKPLCSQCEVGRLLQKETHCPADGPEQCELVQRPRYRRGPHICFDYNATEDTSDCGRGTSFPPSLGVLVSLQLLLLLGLPPRPQPQIHSFAASRRL"}},
  "key": {"α2δ-3 subunit": {"target": "α2δ-3 subunit (Homo sapiens, UniProt Q8IZS8)", "sequence (Q8IZS8 29-1091)": "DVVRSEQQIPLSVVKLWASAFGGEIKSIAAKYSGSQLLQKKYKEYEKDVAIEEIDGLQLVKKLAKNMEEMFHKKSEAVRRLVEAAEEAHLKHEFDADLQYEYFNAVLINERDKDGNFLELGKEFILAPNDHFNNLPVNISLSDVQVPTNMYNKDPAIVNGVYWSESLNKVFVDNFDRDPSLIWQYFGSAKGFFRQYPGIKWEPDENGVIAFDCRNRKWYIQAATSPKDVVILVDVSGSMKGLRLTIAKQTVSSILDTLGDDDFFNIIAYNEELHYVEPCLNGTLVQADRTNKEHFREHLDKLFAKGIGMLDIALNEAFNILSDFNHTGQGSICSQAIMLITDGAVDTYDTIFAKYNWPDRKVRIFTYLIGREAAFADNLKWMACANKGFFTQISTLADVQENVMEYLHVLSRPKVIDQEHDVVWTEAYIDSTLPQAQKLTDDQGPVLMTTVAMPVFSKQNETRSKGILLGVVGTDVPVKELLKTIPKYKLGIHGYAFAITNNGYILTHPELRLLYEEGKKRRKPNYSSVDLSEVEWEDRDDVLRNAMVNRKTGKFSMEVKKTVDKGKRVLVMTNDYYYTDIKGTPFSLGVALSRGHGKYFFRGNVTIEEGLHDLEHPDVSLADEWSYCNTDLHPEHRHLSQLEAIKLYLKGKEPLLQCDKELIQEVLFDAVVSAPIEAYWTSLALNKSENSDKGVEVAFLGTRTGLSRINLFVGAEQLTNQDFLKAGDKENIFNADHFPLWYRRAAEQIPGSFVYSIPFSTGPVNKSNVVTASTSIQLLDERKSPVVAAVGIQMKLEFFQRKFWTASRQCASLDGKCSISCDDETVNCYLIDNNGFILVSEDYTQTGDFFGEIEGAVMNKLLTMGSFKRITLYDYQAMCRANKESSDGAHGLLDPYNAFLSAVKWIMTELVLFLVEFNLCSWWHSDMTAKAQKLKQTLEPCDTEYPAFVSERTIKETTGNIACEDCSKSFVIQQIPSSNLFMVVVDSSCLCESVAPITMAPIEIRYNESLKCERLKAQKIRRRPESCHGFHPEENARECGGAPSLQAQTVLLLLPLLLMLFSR", "settings": "Marais et al. 2001; cited from earlier work"}, "α2δ-2 subunit": {"target": "α2δ-2 subunit (Homo sapiens, UniProt Q9NY47)", "sequence (Q9NY47 19-1150)": "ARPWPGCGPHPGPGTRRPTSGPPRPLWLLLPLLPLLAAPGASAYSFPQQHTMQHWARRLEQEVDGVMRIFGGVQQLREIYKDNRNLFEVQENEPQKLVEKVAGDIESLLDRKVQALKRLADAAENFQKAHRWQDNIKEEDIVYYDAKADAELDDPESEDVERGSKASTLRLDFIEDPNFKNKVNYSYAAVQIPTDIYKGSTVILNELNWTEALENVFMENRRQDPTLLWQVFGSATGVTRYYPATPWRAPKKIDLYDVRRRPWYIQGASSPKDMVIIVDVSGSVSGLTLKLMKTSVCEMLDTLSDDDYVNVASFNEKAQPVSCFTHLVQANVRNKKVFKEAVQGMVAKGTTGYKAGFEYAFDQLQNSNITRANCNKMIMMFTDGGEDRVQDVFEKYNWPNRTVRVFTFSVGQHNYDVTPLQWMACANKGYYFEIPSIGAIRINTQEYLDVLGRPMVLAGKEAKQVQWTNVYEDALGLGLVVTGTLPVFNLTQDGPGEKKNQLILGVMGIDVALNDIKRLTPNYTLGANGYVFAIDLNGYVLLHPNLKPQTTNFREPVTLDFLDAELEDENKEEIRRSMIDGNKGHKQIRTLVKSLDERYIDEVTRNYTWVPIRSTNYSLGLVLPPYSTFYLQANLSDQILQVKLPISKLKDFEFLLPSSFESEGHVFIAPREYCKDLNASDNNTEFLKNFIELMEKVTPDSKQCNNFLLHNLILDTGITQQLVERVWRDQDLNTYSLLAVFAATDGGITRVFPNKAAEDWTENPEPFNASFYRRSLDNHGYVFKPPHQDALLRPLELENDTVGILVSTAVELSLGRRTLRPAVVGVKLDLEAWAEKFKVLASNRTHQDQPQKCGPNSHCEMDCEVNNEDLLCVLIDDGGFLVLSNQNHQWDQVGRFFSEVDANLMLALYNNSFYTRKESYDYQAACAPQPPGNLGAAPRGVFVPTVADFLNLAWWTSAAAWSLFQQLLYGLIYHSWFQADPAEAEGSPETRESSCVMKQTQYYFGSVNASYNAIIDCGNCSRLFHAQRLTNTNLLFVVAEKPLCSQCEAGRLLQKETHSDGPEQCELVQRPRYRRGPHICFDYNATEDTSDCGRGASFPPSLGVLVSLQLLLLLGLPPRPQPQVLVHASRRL", "settings": "Marais et al. 2001; cited from earlier work"}, "[1]": {"test_system": "α2δ-3 expression in cultured rat atrial myocytes", "settings": "Chu 2003; cited from earlier work"}, "[2]": {"test_system": "rat α1B+β1b Ca2+ channel (N-type calcium channel)", "assay": "Whole-cell patch clamp current density of rat α1B+β1b channels with coexpressed α2δ-2 in transfected HEK 293 cells", "assay_type": "cell-based", "protocol": "Human embryonic kidney cells, HEK 293 (ATCC# CRL 1573) or HEK 293 tsA 201, were grown in standard DMEM medium supplemented with 4 mM glutamine and 10% fetal bovine serum. The rat α2δ-2 construct was transfected into HEK 293 or HEK 293 tsA 201 cells with equimolar concentration of the subunits α1B (N-type calcium channel) and β1b, using lipofectamine (Gibco/Invitrogen) according to the manufacturer's instructions. pEGFP was included in the transfected cDNA at 3-5 times less the molar concentration to detect transfected cells and to determine the efficiency of transfection. Transfected cells were incubated at 37° C., 5% CO2, for 6-24 hours and then placed at 29° C., 5% CO2.\nAfter an incubation period of 24 to 72 hours, the culture medium was removed and replaced with an external recording solution containing (in mM) 5 BaCl, 129 CsCl, 1 MgCl2, 10 HEPES, 10 glucose, pH 7.4 with CsOH. Whole-cell patch clamp recordings were made with an Axopatch 200B amplifier (Axon Instruments, USA). […] Signals were acquired at 2.02 kHz and analyzed offline using pClamp 8.2 (Axon Instruments, USA) and Origin (OriginLab Corporation, USA) software. […]\nMean current density was recorded for 4 cells transfected with rat α1B+β1b only and for 7 cells that were also cotransfected with rat brain α2δ-2 subunit. […]"}},
  "data": [
    {"molecule": "NCC1(CC(=O)O)CCCCC1", "note": "[gabapentin]", "values": [
      {"measurement": "binding to α2δ-3 subunit", "setting": "α2δ-3 subunit", "result": "not"},
      {"measurement": "binding to α2δ-2 subunit", "setting": "α2δ-2 subunit", "result": "binds"}
    ]},
    {"molecule": "IGF-1: IGF-1, reported to stimulate α2δ-3 expression in cultured rat atrial myocytes", "values": [
      {"measurement": "effect on α2δ-3 expression", "setting": "[1]", "result": "stimulates"}
    ]},
    {"molecule": "B1", "values": [
      {"measurement": "mean current density (Ipeak/cell capacitance)", "setting": "[2]; rat α1B+β1b coexpressed with rat brain α2δ-2 in HEK 293 cells, test potential +20 mV from holding −80 mV, 7 cells, mean±S.E.M, without α2δ-2: −7.2±2.3", "result": "−30.0±4.1", "unit": "pA/pF"},
      {"measurement": "increase of rat α1B+β1b current density", "setting": "[2]; with versus without coexpressed α2δ-2, P=0.01", "result": "~4", "unit": "fold"}
    ]}
  ]
}
